Results from the supplement of paper PMC13380429.

What was measured:
Conditions in all cases: 72 h
Caco-2 [1] = assay: relative viability EC50 (midpoint between 100% and the lowest measured viability); higher = less toxic
U2OS [2] = assay: as above
Vero E6 [3] = assay: as above
Calu-3 [4] = assay: as above
HepG2 [5] = assay: as above
Caco-2 [6] = assay: drug sensitivity score (DSS) for viability; higher = more toxic; extreme values may be limits of the assay
U2OS [7] = assay: as above
Vero E6 [8] = assay: as above
Calu-3 [9] = assay: as above
HepG2 [10] = assay: as above
Caco-2 [11] = assay: cell viability relative to DMSO; higher = less toxic
U2OS [12] = assay: as above
Vero E6 [13] = assay: as above
Calu-3 [14] = assay: as above
HepG2 [15] = assay: as above

Row | SMILES | relative viability EC50 (Caco-2 [1]) | relative viability EC50 (U2OS [2]) | relative viability EC50 (Vero E6 [3]) | relative viability EC50 (Calu-3 [4]) | relative viability EC50 (HepG2 [5]) | drug sensitivity score (Caco-2 [6]) | drug sensitivity score (U2OS [7]) | drug sensitivity score (Vero E6 [8]) | drug sensitivity score (Calu-3 [9]) | drug sensitivity score (HepG2 [10]) | cell viability (Caco-2 [11]; 1 nM) | cell viability (Caco-2 [11]; 10 nM) | cell viability (Caco-2 [11]; 100 nM) | cell viability (Caco-2 [11]; 1000 nM) | cell viability (Caco-2 [11]; 10000 nM) | cell viability (U2OS [12]; 1 nM) | cell viability (U2OS [12]; 10 nM) | cell viability (U2OS [12]; 100 nM) | cell viability (U2OS [12]; 1000 nM) | cell viability (U2OS [12]; 10000 nM) | cell viability (Vero E6 [13]; 1 nM) | cell viability (Vero E6 [13]; 10 nM) | cell viability (Vero E6 [13]; 100 nM) | cell viability (Vero E6 [13]; 1000 nM) | cell viability (Vero E6 [13]; 10000 nM) | cell viability (Calu-3 [14]; 1 nM) | cell viability (Calu-3 [14]; 10 nM) | cell viability (Calu-3 [14]; 100 nM) | cell viability (Calu-3 [14]; 1000 nM) | cell viability (Calu-3 [14]; 10000 nM) | cell viability (HepG2 [15]; 1 nM) | cell viability (HepG2 [15]; 10 nM) | cell viability (HepG2 [15]; 100 nM) | cell viability (HepG2 [15]; 1000 nM) | cell viability (HepG2 [15]; 10000 nM)
1 | CCCC(=O)C1(c2ccccc2)CCN(C(=O)[C@@H](Cc2ccc(OC)cc2)NC(=O)[C@@H](N)Cc2cncn2C)CC1 | > 10 µM | > 10 µM | > 10 µM | > 10 µM | > 10 µM | 0 | 0 | 0 | 0 | 0 | 108% | 94.9% | 97.3% | 102% | 99.7% | 98.8% | 97.9% | 104% | 102% | 97.7% | 102% | 101% | 98.7% | 102% | 97.1% | 98.3% | 100% | 96.6% | 101% | 106% | 95.4% | 105% | 97.8% | 118% | 95.3%
2 | Fc1ccc(-c2nc3n(c2-c2ccncc2)CCS3)cc1 | > 10 µM | > 10 µM | > 10 µM | > 10 µM | > 10 µM | 0.2 | 0 | 0 | 0 | 0 | 99.6% | 101% | 90.9% | 89.4% | 92% | 99% | 97.8% | 98.7% | 96.1% | 97.6% | 97.8% | 99.7% | 98.2% | 99.1% | 93% | 95.2% | 86.2% | 90.9% | 87.7% | 101% | 97.3% | 93.2% | 97.8% | 99.9% | 100%
3 | NNC(=O)CSc1nc2scc(-c3ccccc3)c2c(=O)n1-c1ccccc1 | > 10 µM | > 10 µM | > 10 µM | > 10 µM | – | 0 | 0 | 0 | 0 | – | 100% | 97.7% | 93.1% | 93.6% | 108% | 97.7% | 95.8% | 98.3% | 103% | 102% | 94.1% | 97.1% | 94.8% | 90.5% | 109% | 91.9% | 93.2% | 95.3% | 103% | 101% | – | – | – | – | –
4 | O=c1[nH]ccc2cc(OC3CCNCC3)ccc12 | > 10 µM | > 10 µM | > 10 µM | > 10 µM | > 10 µM | 0 | 0 | 0 | 0 | 0 | 89.7% | 96.4% | 99.7% | 100% | 106% | 97.6% | 98.2% | 101% | 96.3% | 94.9% | 97.1% | 101% | 89.6% | 100% | 92% | 93.8% | 106% | 111% | 127% | 130% | 98.1% | 99.7% | 108% | 112% | 106%
5 | CN1CCN(C2=Cc3ccccc3Oc3ccc(Cl)cc32)CC1 [2-CMDO] | > 10 µM | > 10 µM | > 10 µM | > 10 µM | – | 0 | 0 | 0 | 0 | – | 107% | 90.6% | 99.7% | 103% | 92.3% | 101% | 98.6% | 96.7% | 100% | 90.1% | 102% | 99.5% | 103% | 103% | 93.3% | 103% | 102% | 98.2% | 112% | 95.6% | – | – | – | – | –
6 | COc1cc2c(cc1OCCCN1CCCC1)N=C(N)C21CCC1 [A-366] | > 10 µM | > 10 µM | > 10 µM | > 10 µM | – | 0 | 0 | 0 | 0 | – | 91.2% | 95.4% | 97.5% | 104% | 92% | 103% | 102% | 98.9% | 105% | 95.2% | 101% | 98.1% | 93.6% | 94.4% | 97.8% | 97.3% | 106% | 102% | 103% | 95.4% | – | – | – | – | –
7 | C[C@H](NC(=O)Cc1cc(F)cc(F)c1)C(=O)N[C@H](C(=O)OC(C)(C)C)c1ccccc1 [DAPT] | > 10 µM | > 10 µM | > 10 µM | > 10 µM | – | 0 | 0 | 0 | 0 | – | 108% | 109% | 116% | 99.8% | 96.1% | 106% | 106% | 105% | 97.7% | 101% | 98.3% | 108% | 103% | 105% | 102% | 105% | 100% | 112% | 91.1% | 103% | – | – | – | – | –
